How the values were obtained:
[1] = cited from earlier work
[2] = Half-lives of HAE prophylactic products (from product sources); conditions: for half-life: human
[3] = Plasma pharmacokinetics of LP01 (LC-MS/MS) in HAE patients; format: in vivo, human
Description: Blood samples were collected to assess plasma concentration time profiles pre-infusion, during the infusion period, and at the end of the infusion period. Post infusion samples were collected at predefined time points as indicated in the graph (FIG. 37). LP01 (Lipid A) was quantified using liquid chromatography with tandem mass spectrometry (LC-MS/MS) methods. Plasma samples were evaluated using validated methods following regulatory guidelines.

C#C[C@]1(O)CC[C@H]2[C@@H]3CCC4=Cc5oncc5C[C@]4(C)[C@H]3CC[C@@]21C [Danocrine, Danazol, reference compound]
Half Life (t1/2) [1]: 9.7 h
half-life [2]: 48.5 h

CCCCC/C=C\C/C=C\CCCCCCCC(=O)OCC(COC(=O)CCC(OCCCCCCCC)OCCCCCCCC)COC(=O)OCCCN(CC)CC (centres unmarked) [LP01, (9Z,12Z)-3-((4,4-bis(octyloxy)butanoyl)oxy)-2-((((3-(diethylamino)propoxy)carbonyl)oxy)methyl)propyl octadeca-9,12-dienoate]
half-life ([3]; human, single dose IV infusion of NTLA-2002 25, 50 or 75 mg, range of cohort means, read-out: mean t1/2): 16.8 to 21.3 h
decline below limit of quantification by ([3]; single dose IV infusion of NTLA-2002): ≤ 15 days

N#Cc1cccc([C@@H](NCC2CC2)c2ccc(F)c(NC(=O)c3cc(C(F)(F)F)nn3-c3cccc(CN)c3)c2)c1 [Orladeyo, Berotralstat, reference compound]
Half Life (t1/2) [1]: 93 h
half-life [2]: 465 h

C[C@]12COC(=O)C[C@@H]1CC[C@@H]1[C@@H]2CC[C@@]2(C)[C@H]1CC[C@]2(C)O [Oxandrin, Oxandrolone]
half-life [2]: 66.5 h

Cinryze: C1 Esterase Inhibitor [Human], HAE prophylactic product
Half Life (t1/2) [1]: 56 to 62 h
Estimated washout for (5 half-lives) [2]: 310 hours = ~13 days

Haegarda: C1 Esterase Inhibitor [Human], HAE prophylactic product
Half Life (t1/2) [1]: 69 h
Estimated washout for (5 half-lives) [2]: 345 hours = ~14.5 days

Source: patent publication US20260240959A1, “METHODS FOR IN VIVO EDITING OF KLKB1” (INTELLIA THERAPEUTICS, INC., priority 2022, published 2026)
